Source: PubChem BioAssay AID2060486 (Molecular Pharmacology Branch, DTP, NCI, 2025)
pIC50: −log10 of the molar value.

Tested on: IGROV1 complex spheroids (HUVEC, MSC), viability % test/control
Assay: Anticancer human tumor IGROV1 cell line growth inhibition [GQUAD];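 also: spheroids exposed to compounds for 7 days before readout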;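 as to viability, T/C: 100% = DMSO vehicle control viability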
Settings: for pIC50: curve of first compound; for viability, T/C: stronger effect = lower value
Method in brief: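 Tumor cells were grown as complex spheroids with HUVEC endothelial cells and mesenchymal stem cells as stroma. G-quadruplex stabilizers were combined with targeted agents over half-log dilutions from near the clinical Cmax, or from 10 microM.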

[1] = second compound 0.0316 µM, first compound 0.0316 µM
[2] = second compound 0.0316 µM, first compound 0.1 µM
[3] = second compound 0.0316 µM, first compound 0.316 µM
[4] = second compound 0.0316 µM, first compound 1 µM
[5] = second compound 0.0316 µM, first compound 3.16 µM
[6] = second compound 0.0316 µM, first compound 10 µM
[7] = second compound 0.1 µM, first compound 0.0316 µM
[8] = second compound 0.1 µM, first compound 0.1 µM
[9] = second compound 0.1 µM, first compound 0.316 µM
[10] = second compound 0.1 µM, first compound 1 µM
[11] = second compound 0.1 µM, first compound 3.16 µM
[12] = second compound 0.1 µM, first compound 10 µM
[13] = second compound 0.316 µM, first compound 0.0316 µM
[14] = second compound 0.316 µM, first compound 0.1 µM
[15] = second compound 0.316 µM, first compound 0.316 µM
[16] = second compound 0.316 µM, first compound 1 µM
[17] = second compound 0.316 µM, first compound 3.16 µM
[18] = second compound 0.316 µM, first compound 10 µM
[19] = second compound 1 µM, first compound 0.0316 µM
[20] = second compound 1 µM, first compound 0.1 µM
[21] = second compound 1 µM, first compound 0.316 µM
[22] = second compound 1 µM, first compound 1 µM
[23] = second compound 1 µM, first compound 3.16 µM
[24] = second compound 1 µM, first compound 10 µM
[25] = second compound 3.16 µM, first compound 0.0316 µM
[26] = second compound 3.16 µM, first compound 0.1 µM
[27] = second compound 3.16 µM, first compound 0.316 µM
[28] = second compound 3.16 µM, first compound 1 µM
[29] = second compound 3.16 µM, first compound 3.16 µM
[30] = second compound 3.16 µM, first compound 10 µM
[31] = second compound 10 µM, first compound 0.0316 µM
[32] = second compound 10 µM, first compound 0.1 µM
[33] = second compound 10 µM, first compound 0.316 µM
[34] = second compound 10 µM, first compound 1 µM
[35] = second compound 10 µM, first compound 3.16 µM
[36] = second compound 10 µM, first compound 10 µM

C=CCn1c(=O)c2cnc(Nc3ccc(N4CCN(C)CC4)cc3)nc2n1-c1cccc(C(C)(C)O)n1 + Cc1cnc(CNC(=O)c2c(=O)c3ccc(N4CCCN(C)CC4)nc3n3c2sc2ccccc23)cn1
pIC50 (second compound 0.0316 µM): 7.35 | pIC50 (second compound 0.1 µM): > 7.50 | pIC50 (second compound 0.316 µM): > 7.50 | pIC50 (second compound 1 µM): > 7.50 | pIC50 (second compound 3.16 µM): > 7.50 | pIC50 (second compound 10 µM): > 7.50 | viability, T/C [1]: 59% | viability, T/C [2]: 29.8% | viability, T/C [3]: 5.19% | viability, T/C [4]: 2.29% | viability, T/C [5]: 2.42% | viability, T/C [6]: 1.97% | viability, T/C [7]: 23.5% | viability, T/C [8]: 18% | viability, T/C [9]: 4.3% | viability, T/C [10]: 2.46% | viability, T/C [11]: 2.38% | viability, T/C [12]: 2.57% | viability, T/C [13]: 16.9% | viability, T/C [14]: 9.27% | viability, T/C [15]: 4.48% | viability, T/C [16]: 2.42% | viability, T/C [17]: 2.95% | viability, T/C [18]: 2.48% | viability, T/C [19]: 9.95% | viability, T/C [20]: 9.65% | viability, T/C [21]: 3.88% | viability, T/C [22]: 3.14% | viability, T/C [23]: 3.18% | viability, T/C [24]: 3.24% | viability, T/C [25]: 11.6% | viability, T/C [26]: 7.96% | viability, T/C [27]: 4.12% | viability, T/C [28]: 3.52% | viability, T/C [29]: 3.96% | viability, T/C [30]: 3.47% | viability, T/C [31]: 7.24% | viability, T/C [32]: 6.29% | viability, T/C [33]: 4.68% | viability, T/C [34]: 3.1% | viability, T/C [35]: 4.62% | viability, T/C [36]: 2.93%

CC(C)(O)C1CCC(Nc2ccc3ncc(-c4cccc(C(F)(F)F)c4)n3n2)CC1 (stereo not given) + Cc1cnc(CNC(=O)c2c(=O)c3ccc(N4CCCN(C)CC4)nc3n3c2sc2ccccc23)cn1
pIC50 (second compound 0.0316 µM): 6.37 | pIC50 (second compound 0.1 µM): > 7.50 | pIC50 (second compound 0.316 µM): > 7.50 | pIC50 (second compound 1 µM): > 7.50 | pIC50 (second compound 3.16 µM): > 7.50 | pIC50 (second compound 10 µM): > 7.50 | viability, T/C [1]: 71.3% | viability, T/C [2]: 68.4% | viability, T/C [3]: 55.7% | viability, T/C [4]: 34% | viability, T/C [5]: 20.2% | viability, T/C [6]: 16.9% | viability, T/C [7]: 35.6% | viability, T/C [8]: 32.7% | viability, T/C [9]: 33.9% | viability, T/C [10]: 26% | viability, T/C [11]: 14.1% | viability, T/C [12]: 10.2% | viability, T/C [13]: 24.9% | viability, T/C [14]: 25.8% | viability, T/C [15]: 17.4% | viability, T/C [16]: 20.5% | viability, T/C [17]: 14.8% | viability, T/C [18]: 11.4% | viability, T/C [19]: 17% | viability, T/C [20]: 17.6% | viability, T/C [21]: 16.2% | viability, T/C [22]: 16.5% | viability, T/C [23]: 9.63% | viability, T/C [24]: 7.48% | viability, T/C [25]: 12.5% | viability, T/C [26]: 9.36% | viability, T/C [27]: 10.4% | viability, T/C [28]: 10.4% | viability, T/C [29]: 7.96% | viability, T/C [30]: 1.27% | viability, T/C [31]: 10% | viability, T/C [32]: 9.42% | viability, T/C [33]: 9.42% | viability, T/C [34]: 5.73% | viability, T/C [35]: 8.46% | viability, T/C [36]: 0.12%

COc1ncnc(C2CC2)c1-c1ncc2cnn(Cc3ccc(-c4nc(C(F)(F)F)cn4C(C)C)cc3)c2n1 + Cc1cnc(CNC(=O)c2c(=O)c3ccc(N4CCCN(C)CC4)nc3n3c2sc2ccccc23)cn1
pIC50 (second compound 0.0316 µM): 5.68 | pIC50 (second compound 0.1 µM): > 7.50 | pIC50 (second compound 0.316 µM): > 7.50 | pIC50 (second compound 1 µM): > 7.50 | pIC50 (second compound 3.16 µM): > 7.50 | pIC50 (second compound 10 µM): > 7.50 | viability, T/C [1]: 53.6% | viability, T/C [2]: 55.4% | viability, T/C [3]: 53% | viability, T/C [4]: 57.7% | viability, T/C [5]: 42.7% | viability, T/C [6]: 46.5% | viability, T/C [7]: 37.1% | viability, T/C [8]: 39.4% | viability, T/C [9]: 33% | viability, T/C [10]: 28.5% | viability, T/C [11]: 35.5% | viability, T/C [12]: 34.1% | viability, T/C [13]: 20.6% | viability, T/C [14]: 25.6% | viability, T/C [15]: 26.9% | viability, T/C [16]: 21.4% | viability, T/C [17]: 21.7% | viability, T/C [18]: 20.8% | viability, T/C [19]: 15.2% | viability, T/C [20]: 13.8% | viability, T/C [21]: 11.1% | viability, T/C [22]: 14.3% | viability, T/C [23]: 15.8% | viability, T/C [24]: 12.4% | viability, T/C [25]: 10.6% | viability, T/C [26]: 8.57% | viability, T/C [27]: 9.08% | viability, T/C [28]: 9.63% | viability, T/C [29]: 9.64% | viability, T/C [30]: 8.03% | viability, T/C [31]: 9.86% | viability, T/C [32]: 9.33% | viability, T/C [33]: 8.36% | viability, T/C [34]: 8.88% | viability, T/C [35]: 10.2% | viability, T/C [36]: 7.78%

Cc1[nH]c2ccccc2c1CCNCc1ccc(/C=C/C(=O)NO)cc1 + Cc1cnc(CNC(=O)c2c(=O)c3ccc(N4CCCN(C)CC4)nc3n3c2sc2ccccc23)cn1
pIC50 (second compound 0.0316 µM): 8.20 | pIC50 (second compound 0.1 µM): > 9.00 | pIC50 (second compound 0.316 µM): > 9.00 | pIC50 (second compound 1 µM): > 9.00 | pIC50 (second compound 3.16 µM): > 9.00 | pIC50 (second compound 10 µM): > 9.00 | viability, T/C (second compound 0.0316 µM, first compound 0.000999 µM): 65.9% | viability, T/C (second compound 0.0316 µM, first compound 0.00316 µM): 65.3% | viability, T/C (second compound 0.0316 µM, first compound 0.00999 µM): 38.7% | viability, T/C [1]: 21.5% | viability, T/C (second compound 0.0316 µM, first compound 0.0999 µM): 2.35% | viability, T/C [3]: 0.32% | viability, T/C (second compound 0.1 µM, first compound 0.000999 µM): 41.6% | viability, T/C (second compound 0.1 µM, first compound 0.00316 µM): 36.1% | viability, T/C (second compound 0.1 µM, first compound 0.00999 µM): 23.9% | viability, T/C [7]: 19.6% | viability, T/C (second compound 0.1 µM, first compound 0.0999 µM): 2.91% | viability, T/C [9]: 0.3% | viability, T/C (second compound 0.316 µM, first compound 0.000999 µM): 22.5% | viability, T/C (second compound 0.316 µM, first compound 0.00316 µM): 25.8% | viability, T/C (second compound 0.316 µM, first compound 0.00999 µM): 15.5% | viability, T/C [13]: 15% | viability, T/C (second compound 0.316 µM, first compound 0.0999 µM): 3.3% | viability, T/C [15]: 0.05% | viability, T/C (second compound 1 µM, first compound 0.000999 µM): 15.4% | viability, T/C (second compound 1 µM, first compound 0.00316 µM): 16.3% | viability, T/C (second compound 1 µM, first compound 0.00999 µM): 9.69% | viability, T/C [19]: 6.52% | viability, T/C (second compound 1 µM, first compound 0.0999 µM): 1.86% | viability, T/C [21]: 0.04% | viability, T/C (second compound 3.16 µM, first compound 0.000999 µM): 8.66% | viability, T/C (second compound 3.16 µM, first compound 0.00316 µM): 10.2% | viability, T/C (second compound 3.16 µM, first compound 0.00999 µM): 9.38% | viability, T/C [25]: 6% | viability, T/C (second compound 3.16 µM, first compound 0.0999 µM): 0.07% | viability, T/C [27]: 0.07% | viability, T/C (second compound 10 µM, first compound 0.000999 µM): 6.85% | viability, T/C (second compound 10 µM, first compound 0.00316 µM): 7.04% | viability, T/C (second compound 10 µM, first compound 0.00999 µM): 5.72% | viability, T/C [31]: 4.82% | viability, T/C (second compound 10 µM, first compound 0.0999 µM): 0.14% | viability, T/C [33]: 0.13%

O=C(NO)c1cnc(N2CCN(S(=O)(=O)c3ccc4ccccc4c3)CC2)nc1 + Cc1cnc(CNC(=O)c2c(=O)c3ccc(N4CCCN(C)CC4)nc3n3c2sc2ccccc23)cn1
pIC50 (second compound 0.0316 µM): > 7.50 | pIC50 (second compound 0.1 µM): > 7.50 | pIC50 (second compound 0.316 µM): > 7.50 | pIC50 (second compound 1 µM): > 7.50 | pIC50 (second compound 3.16 µM): > 7.50 | pIC50 (second compound 10 µM): > 7.50 | viability, T/C [1]: 49.6% | viability, T/C [2]: 21.8% | viability, T/C [3]: 4.13% | viability, T/C [4]: 0.2% | viability, T/C [5]: 0.06% | viability, T/C [6]: 0.06% | viability, T/C [7]: 16.4% | viability, T/C [8]: 10.6% | viability, T/C [9]: 2.94% | viability, T/C [10]: 0.19% | viability, T/C [11]: 0.06% | viability, T/C [12]: 0.05% | viability, T/C [13]: 11% | viability, T/C [14]: 9.94% | viability, T/C [15]: 2.34% | viability, T/C [16]: 0.05% | viability, T/C [17]: 0.03% | viability, T/C [18]: 0.05% | viability, T/C [19]: 8.18% | viability, T/C [20]: 8.18% | viability, T/C [21]: 1.32% | viability, T/C [22]: 0.04% | viability, T/C [23]: 0.03% | viability, T/C [24]: 0.05% | viability, T/C [25]: 5.96% | viability, T/C [26]: 4.03% | viability, T/C [27]: 0.06% | viability, T/C [28]: 0.04% | viability, T/C [29]: 0.05% | viability, T/C [30]: 0.06% | viability, T/C [31]: 6.31% | viability, T/C [32]: 6.49% | viability, T/C [33]: 0.09% | viability, T/C [34]: 0.07% | viability, T/C [35]: 0.1% | viability, T/C [36]: 0.1%
